Test results as given in US20240415819A1, “MACROCYCLIC COMPOUNDS AS PROTEASOME SUBUNIT BETA TYPE-5 INHIBITORS” (Lead Discovery Center GmbH, priority 2021, published 2024).

Experiments:
[1] = molecular target: T1, β5 subunit of the human constitutive proteasome (CPS) (Homo sapiens, UniProt P28074); assay: β5 inhibition assay, human constitutive proteasome (Suc-LLVY-AMC); format: biochemical; conditions: IC50 class, Suc-LLVY-AMC substrate
T1 construct: purchased Boston Biochem E-360
Protocol: The enzymatic activity of the β5 subunit of the human constitutive proteasome (CPS) is analyzed. In another assay, which differs from the assay of the human constitutive proteasome only in using the human immunoproteasome (IPS) the enzymatic activity of the β5 subunit of the human immunoproteasome (IPS) is analyzed. […] Inhibition is indicated as IC50 [nM] (“-”=not measured).

HT-29 cells = assay: CellTiter-Glo luminescent cell viability assay with HT-29 cells (72h incubation); format: cell-based, human; conditions: Homo sapiens, HT-29, HT29 cells, read-out: CTG HT29
Outline: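 Viability read as CellTiter-Glo luminescence after 72 h compound exposure, with 10 μM staurosporine and DMSO as control wells. Seeding 400 cells per well, compound added 24 h post-plating; IC50 from curve fitting.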

[2] = tested on: A549 (human lung carcinoma cell line); assay: Glo assay of A549 cells (Table 3; ProteasomeGlo plating scheme); format: cell-based; conditions: Homo sapiens; A549 cells; read-out: PGLo A549
Outline: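 Compound treatment lasts 105 minutes at 37° C. under 5% CO2. Suc-LLVY-Glo substrate premixed with detection reagent (60 min at room temperature) is then added directly to the cells, and luminescence after 10-15 min in the dark gives the IC50 in nM.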

| IC50 [1] [nM] | IC50 (HT-29 cells) [nM] | IC50 [2] [nM] | SMILES |
| --- | --- | --- | --- |
| < 100 | < 100 | < 100 | C=CC(=O)N[C@H]1CC(=O)N2CCCC(CCOc3ccc(C)c(c3)CNC(=O)[C@H](CCc3ccccc3)NC1=O)C2 (stereo partly drawn) [Compound 181, N-((9S,12S)-5^4-methyl-8,11,14-trioxo-9-phenethyl-4-oxa-7,10-diaza-1(3,1)-piperidina-5(1,3)-benzenacyclotetradecaphane-12-yl)acrylamide] |
| < 100 | < 100 | < 100 | Cc1ccc2cc1CNC(=O)[C@H](CCc1ccccc1)NC(=O)[C@@H](NC(=O)[C@H](C)c1ccccc1)CC(=O)N1CCCC(CCO2)C1 (stereo partly drawn) [Compound 80, (2R)-N-((9S,12S)-5^4-methyl-8,11,14-trioxo-9-phenethyl-4-oxa-7,10-diaza-1(3,1)-piperidina-5(1,3)-benzenacyclotetradecaphane-12-yl)-2-phenylpropanamide] |
| < 100 | < 100 | < 100 | Cc1ccc2cc1CNC(=O)[C@H](CCc1ccccc1)NC(=O)[C@@H](NC(=O)C1CCCc3ccccc31)CC(=O)N1CCCC(CCO2)C1 (stereo partly drawn) [Compound 82, N-((9S,12S)-5^4-methyl-8,11,14-trioxo-9-phenethyl-4-oxa-7,10-diaza-1(3,1)-piperidina-5(1,3)-benzenacyclotetradecaphane-12-yl)-1,2,3,4-tetrahydronaphthalene-1-carboxamide] |
| < 100 | < 100 | < 100 | COc1ccc(CC(=O)N[C@H]2CC(=O)N3CCCC(CCOc4ccc(C)c(c4)CNC(=O)[C@H](CCc4ccccc4)NC2=O)C3)cc1 (stereo partly drawn) [Compound 83, 2-(4-methoxyphenyl)-N-((9S,12S)-5^4-methyl-8,11,14-trioxo-9-phenethyl-4-oxa-7,10-diaza-1(3,1)-piperidina-5(1,3)-benzenacyclotetradecaphane-12-yl)acetamide] |
| < 100 | < 100 | < 100 | Cc1ccc2cc1CNC(=O)[C@H](CCc1ccccc1)NC(=O)[C@@H](NC(=O)[C@@H](C)c1ccccc1)CC(=O)N1CCCC(CCO2)C1 (stereo partly drawn) [Compound 81, (2S)-N-((9S,12S)-5^4-methyl-8,11,14-trioxo-9-phenethyl-4-oxa-7,10-diaza-1(3,1)-piperidina-5(1,3)-benzenacyclotetradecaphane-12-yl)-2-phenylpropanamide] |
| < 100 | < 100 | < 100 | Cc1ccc2cc1CNC(=O)[C@H](CCc1ccccc1)NC(=O)[C@@H](NC(=O)C(C)(C)C#N)CC(=O)N1CCCC(CCO2)C1 (stereo partly drawn) [Compound 294, 2-cyano-2-methyl-N-((9S,12S)-54-methyl-8,11,14-trioxo-9-phenethyl-4-oxa-7,10-diaza-1(3,1)-piperidina-5(1,3)-benzenacyclotetradecaphane-12-yl)propanamide] |
| < 100 | < 100 | 100 to 500 | Cc1ccc2cc1CNC(=O)[C@H](CCc1ccccc1)NC(=O)[C@@H](NC(=O)C(C)(CO)CO)CC(=O)N1CCCC(CCO2)C1 (stereo partly drawn) [Compound 286, 3-hydroxy-2-(hydroxymethyl)-2-methyl-N-((9S,12S)-5^4-methyl-8,11,14-trioxo-9-phenethyl-4-oxa-7,10-diaza-1(3,1)-piperidina-5(1,3)-benzenacyclotetradecaphane-12-yl)propanamide] |
| < 100 | 1000 to 5000 | 500 to 1000 | Cc1ccc2cc1CNC(=O)[C@H](Cc1c[nH]c3ccccc13)NC(=O)CCC(=O)N1CCCC(CCO2)C1 (stereo partly drawn) [Compound 77, (9S)-9-((1H-indol-3-yl)methyl)-5^4-methyl-4-oxa-7,10-diaza-1(3,1)-piperidina-5(1,3)-benzenacyclotetradecaphane-8,11,14-trione] |
| < 100 | < 100 | < 100 | Cc1ccc2cc1CNC(=O)[C@H](CCc1ccccc1)NC(=O)[C@@H](NC(=O)c1cc3cc(C(F)(F)F)ccc3n1C)CC(=O)N1CCCC(CCO2)C1 (stereo partly drawn) [Compound 87, 1-methyl-N-((9S,12S)-5^4-methyl-8,11,14-trioxo-9-phenethyl-4-oxa-7,10-diaza-1(3,1)-piperidina-5(1,3)-benzenacyclotetradecaphane-12-yl)-5-(trifluoromethyl)-1H-indole-2-carboxamide] |
| 100 to 500 | 1000 to 5000 | 1000 to 5000 | Cc1ccc2cc1CNC(=O)[C@H](Cc1ccccc1)NC(=O)CCC(=O)N1CCCC(CCO2)C1 (stereo partly drawn) [Compound 79, (9S)-9-benzyl-5^4-methyl-4-oxa-7,10-diaza-1(3,1)-piperidina-5(1,3)-benzenacyclotetradecaphane-8,11,14-trione] |
| < 100 | < 100 | < 100 | COc1ccc(CC(=O)N[C@H]2CC(=O)N3CCCC(CCOc4ccc(C)c(c4)CNC(=O)[C@H](CCc4ccccc4)NC2=O)C3)cc1OC (stereo partly drawn) [Compound 63, 2-(3,4-dimethoxyphenyl)-N-((9S,12S)-5^4-methyl-8,11,14-trioxo-9-phenethyl-4-oxa-7,10-diaza-1(3,1)-piperidina-5(1,3)-benzenacyclotetradecaphane-12-yl)acetamide] |
| < 100 | < 100 | < 100 | COc1cccc(CC(=O)N[C@H]2CC(=O)N3CCCC(CCOc4ccc(C)c(c4)CNC(=O)[C@H](CCc4ccccc4)NC2=O)C3)c1 (stereo partly drawn) [Compound 85, 2-(3-methoxyphenyl)-N-((9S,12S)-5^4-methyl-8,11,14-trioxo-9-phenethyl-4-oxa-7,10-diaza-1(3,1)-piperidina-5(1,3)-benzenacyclotetradecaphane-12-yl)acetamide] |
| < 100 | < 100 | < 100 | C=CS(=O)(=O)N[C@H]1CC(=O)N2CCCC(CCOc3ccc(C)c(c3)CNC(=O)[C@H](CCc3ccccc3)NC1=O)C2 (stereo partly drawn) [Compound 180, N-((9S,12S)-5^4-methyl-8,11,14-trioxo-9-phenethyl-4-oxa-7,10-diaza-1(3,1)-piperidina-5(1,3)-benzenacyclotetradecaphane-12-yl)ethenesulfonamide] |
| 100 to 500 | 100 to 500 | 500 to 1000 | CC(=O)N[C@H]1CCC(=O)NCCCCOc2ccc(C)c(c2)CNC(=O)[C@H](CCc2ccccc2)NC1=O [Compound 171, N-((11S,14S)-1^4-methyl-8,12,15-trioxo-14-phenethyl-2-oxa-7,13,16-triaza-1(1,3)-benzenacycloheptadecaphane-11-yl)acetamide] |
| < 100 | < 100 | < 100 | Cc1ccc2cc1CNC(=O)[C@H](CCc1ccccc1)NC(=O)[C@@H](NC(=O)[C@@H](N)Cc1ccccc1)CC(=O)N1CCCC(CCO2)C1 (stereo partly drawn) [Compound 179, (2R)-2-amino-N-((9S,12S)-5^4-methyl-8,11,14-trioxo-9-phenethyl-4-oxa-7,10-diaza-1(3,1)-piperidina-5(1,3)-benzenacyclotetradecaphane-12-yl)-3-phenylpropanamide-] |
| < 100 | < 100 | < 100 | Cc1ccc2cc1CNC(=O)[C@H](CCc1ccccc1)NC(=O)[C@@H](NC(=O)C1CC(F)(F)CN1)CC(=O)N1CCCC(CCO2)C1 (stereo partly drawn) [Compound 135, (2S)-4,4-difluoro-N-((9S,12S)-5^4-methyl-8,11,14-trioxo-9-phenethyl-4-oxa-7,10-diaza-1(3,1)-piperidina-5(1,3)-benzenacyclotetradecaphane-12-yl)pyrrolidine-2-carboxamide] |
